Activity calls are given as the source filed them.
What was measured:
[1] = tested on: Staphylococcus haemolyticus; test: Antibacterial activity against Staphylococcus haemolyticus ATCC 29970 assessed as reduction in microbial growth at 20 uM after 18 hrs by resazurin based assay; assay type: functional, organism-based
Staphylococcus aureus = test: Antibacterial activity against Staphylococcus aureus ATCC 25923 assessed as reduction in microbial growth at 20 uM after 18 hrs by resazurin based assay; assay type: functional, organism-based
Escherichia coli = test: Antibacterial activity against Escherichia coli ATCC 25922 assessed as reduction in microbial growth at 20 uM after 18 hrs by resazurin based assay; assay type: functional, organism-based
Serratia marcescens = test: Antibacterial activity against Serratia marcescens ATCC 14756 assessed as reduction in microbial growth at 20 uM after 18 hrs by resazurin based assay; assay type: functional, organism-based
Yersinia enterocolitica = test: Antibacterial activity against Yersinia enterocolitica ATCC 23715 assessed as reduction in microbial growth at 20 uM after 18 hrs by resazurin based assay; assay type: functional, organism-based
Enterobacter cloacae = test: Antibacterial activity against Enterobacter cloacae ATCC 35030 assessed as reduction in microbial growth at 20 uM after 18 hrs by resazurin based assay; assay type: functional, organism-based
Pseudomonas aeruginosa = test: Antibacterial activity against Pseudomonas aeruginosa ATCC 10145 assessed as reduction in microbial growth at 20 uM after 18 hrs by resazurin based assay; assay type: functional, organism-based
Salmonella typhimurium = test: Antibacterial activity against Salmonella typhimurium ATCC 14028 assessed as reduction in microbial growth at 20 uM after 18 hrs by resazurin based assay; assay type: functional, organism-based; details: Salmonella enterica subsp. enterica serovar Typhimurium, DT104 ATCC 14028
Shigella flexneri = test: Antibacterial activity against Shigella flexneri ATCC 12020 assessed as reduction in microbial growth at 20 uM after 18 hrs by resazurin based assay; assay type: functional, organism-based
[2] = tested on: Staphylococcus ureilyticus; test: Antibacterial activity against Staphylococcus cohnii subsp. urealyticum assessed as reduction in microbial growth after at 20 uM 18 hrs by resazurin based assay; assay type: functional
SH-SY5Y = test: Cytotoxicity against human SH-SY5Y cells assessed as reduction in cell viability at 20 uM after 24 hrs by MTT assay; assay type: functional, cell-based

Measured: Activity

COC(=O)c1cc(OC)cc2c1-c1oc(C)cc(=O)c1CO2
inactive: all assays above

COc1cc(O)c2c(c1C)[C@@H](C)[C@@](O)(CO)OC2=O
inactive: all assays above

COc1cc(=O)oc(C[C@H](C)O)c1C
inactive: all assays above

CCCc1oc(=O)cc(OC)c1C
inactive: all assays above

COC(=O)c1cc(OC)cc(O)c1C(=O)C1CC2(CCc3cc(OC)cc(C(=O)OC)c3C2=O)C(=O)C2=C(C)OC(C)=CC21 (stereo unspecified)
inactive: all assays above

C=C1OC(=O)c2c(O)cc(OC)c(C)c2[C@H]1C
inactive: all assays above
